Test results reported in article PMC11954736 (BioImpacts : BI, 2024).

How the values were obtained:
[1] = tested on: Aβ-induced memory impairment in Wistar rats; assay: Morris water maze; type: in vivo; details: Aβ induced AD rats, oral, 21 days; 3rd and fourth training days
TNFα = assay: Western blot of TNFα in rat hippocampal tissue; type: in vivo, Wistar rats; details: Aβ induced AD rats, oral, 21 days
NF-κB = assay: Western blot of NF-κB in rat hippocampal tissue; type: in vivo, Wistar rats; details: Aβ induced AD rats, oral, 21 days
MCF7 = assay: Cell viability assay; type: cell-based, human; details: MTT, 48 h exposure; LD50: concentration that causes 50% of cell viability
B16 = assay: Cell viability assay; type: cell-based, murine; details: MTT, 48 h exposure; LD50: concentration that causes 50% of cell viability
PC12 cells = assay: Cell viability assay; type: cell-based, rat; details: MTT, 48 h exposure, studied concentrations

SMILES	Escape latency time, MWM [1]	TNFα level in hippocamp tissue (western blot) (TNFα)	NF-κB level in hippocamp tissue (western blot) (NF-κB)	MCF7 (LD50 µM) (MCF7) [µM]	B16 (LD50 µM) (B16) [µM]	PC12 (LD50 µM) (PC12 cells)	PC12 (LD50 µM) (PC12 cells; listed as galantamine)
COc1cc2c(cc1OC)C(=O)C(CC1CCN(Cc3ccccc3)CC1)C2 (stereo not shown) [Donepezil]	significantly decreased	Downregulation	Downregulation	–	–	–	–
COc1ccc2c3c1O[C@H]1C[C@@H](O)C=C[C@@]31CCN(C)C2 [Galantamine]	–	–	–	31.19	34.09	No growth inhibition*	no significant effect
